Experimental data as given in ChEMBL document CHEMBL1139150, “Design of antimicrobial compounds based on peptide structures” (Bioorg Med Chem Lett, 2007).
In brackets after ≈: the same amount, converted by molar mass. Peptide text beside a SMILES is read from it.

Assays:
[1] = test system: Bacillus subtilis; test: Antibacterial activity against Bacillus subtilis; type: functional
[2] = Induction of erythrocyte lysis at 100 uM; type: cell-based; settings: human, erythrocytes; read-out: Activity
[3] = test system: Escherichia coli; test: Antibacterial activity against Escherichia coli; type: functional

SMILES | MIC [1] | hemolysis at 100 µM [2] | MIC [3]
N=C(N)NCCCCCNC(=O)[C@H](Cc1c[nH]c2ccccc12)NC(=O)c1cc(C(=O)N[C@@H](Cc2c[nH]c3ccccc23)C(=O)NCCCCCNC(=N)N)cc(C(=O)N[C@@H](Cc2c[nH]c3ccccc23)C(=O)NCCCCCNC(=N)N)c1 | 2 µM (≈ 2.29 µg/mL) | 22.6% | 15.6 µM (≈ 17.9 µg/mL)
NCCCCCNC(=O)[C@@H](N)Cc1c[nH]c2ccccc12 | > 250 µM | < 1% | > 250 µM
NCCNC(=O)[C@@H](N)Cc1c[nH]c2ccccc12 | > 250 µM | < 1% | > 250 µM
N=C(N)NCCNC(=O)[C@H](Cc1c[nH]c2ccccc12)NC(=O)c1cc(C(=O)N[C@@H](Cc2c[nH]c3ccccc23)C(=O)NCCNC(=N)N)cc(C(=O)N[C@@H](Cc2c[nH]c3ccccc23)C(=O)NCCNC(=N)N)c1 | 3.9 µM (≈ 3.98 µg/mL) | 5.1% | > 125 µM
NCCCCCNC(=O)[C@H](Cc1c[nH]c2ccccc12)NC(=O)c1cc(C(=O)N[C@@H](Cc2c[nH]c3ccccc23)C(=O)NCCCCCN)cc(C(=O)N[C@@H](Cc2c[nH]c3ccccc23)C(=O)NCCCCCN)c1 | 31.3 µM (≈ 32 µg/mL) | 0.4% | 62.5 µM (≈ 63.8 µg/mL)
NCCNC(=O)[C@H](Cc1c[nH]c2ccccc12)NC(=O)c1cc(C(=O)N[C@@H](Cc2c[nH]c3ccccc23)C(=O)NCCN)cc(C(=O)N[C@@H](Cc2c[nH]c3ccccc23)C(=O)NCCN)c1 | 31.3 µM (≈ 28 µg/mL) | 1.2% | > 125 µM
O=C(O)c1cc(C(=O)O)cc(C(=O)O)c1 | > 250 µM | < 1% | > 250 µM
NCCCC[C@@H]1NC(=O)[C@H](CCCCN)NC(=O)[C@H](Cc2ccccc2)NC(=O)[C@H](CCCCN)NC(=O)[C@H](Cc2c[nH]c3ccccc23)NC(=O)[C@H](Cc2c[nH]c3ccccc23)NC1=O (cyclo(FKKWWK)) | 25 µM (≈ 22.6 µg/mL) | 10% | 25 µM (≈ 22.6 µg/mL)
N=C(N)NCCC[C@@H]1NC(=O)[C@H](CCCNC(=N)N)NC(=O)[C@H](Cc2ccccc2)NC(=O)[C@H](CCCNC(=N)N)NC(=O)[C@H](Cc2c[nH]c3ccccc23)NC(=O)[C@H](Cc2c[nH]c3ccccc23)NC1=O (cyclo(RRWWRF)) | 3.1 µM (≈ 3.06 µg/mL) | 24% | 6.3 µM (≈ 6.23 µg/mL)
